Structures are written as SMILES.

Common to all, as to assay type: cell-based
Assay [1] relates to T47D cells. The assay is described as follows: Anti-viability / anti-proliferation in T47D cells. As to conditions: 6 days, CPD-380 vs CPD-343. Here is the method: (§1) FIG. 10A-10B show immunoblots of cyclin D1, cyclin D3, CDK4, p-Rb, FoxM1 and cyclin A2 proteins expressed by T47D cells after treatment with a dose range of heterobifunctional compound CPD-343, or its control compound CPD-380 for 48 hours (FIG. 10A), and anti-viability curves of T47D cells in the presence of CP-343, or CPD-380 for 6 days (FIG. 10B).
(§2) To verify that heterobifunctional compound-mediated degradation is dependent on the binding to CDK4-cyclin D complex, we designed three negative control compounds, CPD-042, CPD-049 and CPD-380, which are derived from CPD-002 CPD-031 and CPD-343, respectively. These three control compounds bear the same DDB1 ligand and linker as their corresponding active heterobifunctional compounds but with modified warheads to impair the binding of the control compounds to CDK4. […] However, the binding to CDK4 is not sufficient for cyclin D degradation. Two cereblon (CRBN)-recruiting reference heterobifunctional compounds, CP-10 (Su, J Med Chem, 2019; CAS No.: 2366268-80-4) and BSJ-03-123 (Brand, Cell Chem Biol, 2019; CAS No.: 2361493-16-3) were analyzed in Calu-1 cells.

Assay [2] concerns cyclin D1, cyclin D3, CDK4. The assay is described as follows: Immunoblot of cyclin D and CDK4 degradation in T47D cells. Conditions: 48 hours, CPD-380 vs CPD-343. As for the experimental part:
as §1, §2
In general terms: In western blotting, separated proteins are transferred to a membrane and probed.

In another assay the test system is Cyclin D. The assay can be described thus: Immunoblotting of degradation in T47D cells. Conditions: dose range, 48 hours. Here is the method:
T47D cells were treated with a dose range of heterobifunctional compound CPD-343 or its negative control compound CPD-380 for 48 hours.
(§3) Cultured cells were washed with cold PBS once and lysed in cold RIPA buffer supplemented with protease inhibitors and phosphatase inhibitors (Beyotime Biotechnology). The solutions were then incubated at 4° C. for 30 min with gentle agitation to fully lysed cells. Cell lysates were centrifuged at 13,000 rpm for 10 min at 4° C. and pellets were discarded. Total protein concentrations in the lysates were determined following BCA assays (Beyotime Biotechnology). Cell lysates were mixed with Laemmli loading buffer and heated at 99° C. for 5 min. Proteins were resolved on SDS-PAGE and visualized using Western ECL Substrate kits on a ChemiDoc MP Imaging system (Bio-Rad). Protein bands were quantitated using the Image Lab software provided by Bio-Rad.

Assay [3] has as its system T47D cells. The assay can be described thus: Annexin V apoptosis flow cytometry in T47D cells. As to conditions: 6 days, doses approximating IC50 and IC90. Here is the method: T47D cells were treated with DMSO, palbociclib, heterobifunctional compound CPD-343, or negative control compound CPD-380 for 6 days at doses approximating IC50 and IC90 concentrations as indicated. Cells were harvested by trypsinization, staining was carried out using the Annexin V Apoptosis Detection Kit.
Assays were performed on the CytoFLEX Cytometer (Beckman Coulter), and data were analyzed using CytExpert software. For cell death and apoptosis analysis, cells were harvested by trypsinization, staining was carried out using the Annexin V Apoptosis Detection Kit (BD Biosciences). Briefly, cells were resuspended in 1× binding buffer and incubated with fluorochrome-conjugated Annexin V and 7-AAD for 15 min in darkness at room temperature.
On the technique in general: In flow cytometry, cells or beads pass a laser one at a time.

Assay [4] concerns T47D cells. The assay can be described thus: Cell viability assay, T47D. Conditions: 10-point serial dilution, 6 days. Here is the method: T47D cells were seeded in 96-well plates and treated with of CP-343, or CPD-380 following a 10-point serial dilution for 6 days.
(§4) Cells were seeded at a density of 2,000-5,000 cells per well in 96-well assay plates and treated with test compounds following a 10-point serial dilution for 3-6 days. Cell viability was determined using the CellTiter-Lumi assay kit according to the manufacturer's instructions. The dose-response curves were determined and IC50 values were calculated using the GraphPad Prism software following a nonlinear regression (least squares fit) method. Data presented was mean±standard deviation (SD) unless otherwise indicated.

Assay [5] deals with T47D cells. The assay can be described thus: Flow cytometric analysis of Annexin V/7-AAD stained T47D cells. Conditions: 6 days. As for the experimental part: ER^+ breast cancer T47D cells were treated with DMSO, palbociclib, heterobifunctional compound CPD-343, or negative control compound CPD-380 for 6 days at doses approximating IC50 and IC90 concentrations determined in FIGS. 10A and 13. Cells were harvested by trypsinization, staining was carried out using the Annexin V Apoptosis Detection Kit. The percentages of early apoptotic (Annexin V^+7-AAD^−, lower right quadrant), late apoptotic (Annexin V^+7-AAD^+, upper right quadrant) and necrotic cells (Annexin V-7-AAD^+, upper left quadrant) are indicated on dot plots. […] Furthermore, we developed one ER^+ breast cancer T47D model with acquired resistance after long period of treatment with 1 μM palbociclib (over IC90). Cells were deemed resistant when growing in the presence of palbo at the same rate as parental cells. Palbo resistance was determined by CellTiter-Lumi cell viability assay.

For assay [6], the system named is P300 and CBP. The assay is described as follows: Immunoblotting of P300 and CBP protein levels in multiple cell lines. Conditions: LNCaP, Calu-1, NCI-H1703, or MM.1R cells, 8 hours. Here is the method:
LNCaP, Calu-1, NCI-H1703, or MM.1R cells were treated with CPD-191 at indicated concentrations for 8 hours.
as §3

In assay [7] the test system is P300 and CBP. The assay can be described thus: Immunoblot of P300 and CBP protein levels in LNCaP, Calu-1, NCI-H1703 or MM.1R cells. Conditions: Calu-1, NCI-H1703 or MM.1R cell lines, 8 hours. An excerpt: Additional exemplary heterobifunctional compounds were designed to modulate the protein levels of either P300/CBP, or BRD4, and characterized in multiple cell lines. […] Taken together, DDB1 ligands conjugating with different target ligands may modulate the cellular target protein levels of cyclin D, CDK4/6, P300/CBP and BRD4.

The subject of another assay is P300/CBP. The assay is described as follows: P300/CBP cellular protein degradation. The essentials:
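Treated cells lysed in RIPA buffer with protease and phosphatase inhibitors, protein normalized by BCA assay. P300/CBP levels assessed by SDS-PAGE Western blot with ECL detection and band densitometry.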

The subject of the next assay is Calu-1 cells. The assay is described as follows: Anti-viability / anti-proliferation in Calu-1 cells. Conditions: 3 days. Here is the method:
FIG. 6 show immunoblots of cyclin D1, cyclin D2, cyclin D3, and CDK4 proteins expressed by Calu-1 cells after treatment with a dose range of control compounds CPD-042 (A), or CPD-049 (B) for 16 hours, and anti-viability curves of Calu-1 cells in the presence of CPD-002 and CPD-042 (C), or CPD-031 and CPD-049 (D).
FIG. 11A-11B show immunoblots of cyclin D1, CDK4, and CDK6 proteins expressed by Calu-1 cells after treatment with a dose range of heterobifunctional reference compound CP-10, or BSJ-03-123 for 8 hours (FIG. 11A), and anti-viability curves of Calu-1 cells in the presence of CP-10, or BSJ-03-123 for 3 days (FIG. 11B).
as §2

The test system of assay [8] is cyclin D1, cyclin D2, cyclin D3. The assay is described as follows: Immunoblot of cyclin D protein levels in Calu-1 (and BT-549) cells. Conditions: Calu-1 cells, 8 hours, dose range.
The next assay has as its system Calu-1. The assay is described as follows: Cell viability assay, Calu-1. As to conditions: Calu-1 cells, 96-well plates, serial dilution, 3 days. As for the experimental part: Cells were treated with CDK4/6 inhibitors palbociclib, ribociclib, or abemaciclib, or heterobifunctional compounds CPD-002 or CPD-031 following a 9-point serial dilution for 3 days.
as §4

For a further assay, the system named is CDK4, CDK6. The assay can be described thus: Immunoblot of CDK4 and CDK6 protein levels in Calu-1 cells. Conditions: 8 hours, dose range. Here is the method: Specific exemplary heterobifunctional compounds were characterized in Calu-1, BT-549 and other cells. Cells that express cyclin D1-3 and CDK4/6 proteins were treated with heterobifunctional compounds disclosed herein at indicated concentrations for 16 hours. Cells were collected, lysed and subject to immunoblotting using an antibody specific to cyclin D1, cyclin D2, cyclin D3, CDK4, CDK6 or phosphorylated R^b proteins. Tubulin or GAPDH was used as the loading control. DMSO treatment was used as the negative control.
In a time-course study, Calu-1 cells were treated with 500 nM CPD-002, or 100 nM CPD-031 for indicated period of time prior to immunoblotting (FIG. 4A-4B).
To verify that heterobifunctional compound-mediated degradation is dependent on the binding to CDK4-cyclin D complex, we designed three negative control compounds, CPD-042, CPD-049 and CPD-380, which are derived from CPD-002 CPD-031 and CPD-343, respectively. These three control compounds bear the same DDB1 ligand and linker as their corresponding active heterobifunctional compounds but with modified warheads to impair the binding of the control compounds to CDK4. […] Two cereblon (CRBN)-recruiting reference heterobifunctional compounds, CP-10 (Su, J Med Chem, 2019; CAS No.: 2366268-80-4) and BSJ-03-123 (Brand, Cell Chem Biol, 2019; CAS No.: 2361493-16-3) were analyzed in Calu-1 cells.

For assay [9], the system named is cyclin D1, cyclin D2, cyclin D3, CDK4 and CDK6. The assay is described as follows: Immunoblotting of cyclin D and CDK4/6 protein levels in Calu-1 cells. As to conditions: indicated concentrations, 8 hours. Here is the method: Calu-1 (FIG. 2A) or BT-549 (FIG. 2B) cells were treated with CPD-002, CPD-004, or palbociclib at indicated concentrations for 16 hours.
Calu-1 cells were treated with CPD-031 at indicated concentrations for 16 hours.
Calu-1 cells were treated with CPD-002 or CPD-031 at 500 nM or 100 nM, respectively for indicated period of time.
Calu-1 cells were pre-treated with DMSO, 20 μM MG-132 (MG), 5 μM MLN4924 (MLN) or 1 μM TAK-243 (TAK) for 2 hours, and subsequently incubated with 500 nM CPD-002, 500 nM CPD-004, or 100 nM CPD-031 for another 4 h or 2 h prior to immunoblotting (FIG. 5A-5B).
Calu-1 cells were treated with a dose range of negative control compounds CPD-042 or CPD-049 for 16 hours (FIG. 6A-6B).
Calu-1 cells were treated with reference compounds CP-10 or BSJ-03-123 at indicated concentrations for 8 hours.
as §3

As to `CNc1ccc(C(=O)Nc2ccc(OC)nn2)c(NC(=O)CCOCCOCCNC(=O)CN2CCN(c3ccc(N(C)c4ncc5c(C)c(C(C)=O)c(=O)n(C6CCCC6)c5n4)nc3)CC2)c1` [CPD-380], the “decrease of cellular anti-proliferation activity versus corresponding active compound” value in the assay with T47D cells [1] was over 20 fold. Further, the “decrease of degradation potency versus corresponding active compound” value in assay [2] is reported as over 15 fold. In addition, the “degradation potencies compared with corresponding active heterobifunctional compound” value with Cyclin D is given as “much weaker degradation potencies”. For the same compound, the “effect on cell apoptosis” value in the assay with T47D cells [3] was “much less effect on cell apoptosis”. In the assay with T47D cells [4], the “cell viability (cellular anti-proliferation activity)” value is recorded as “much weaker cellular anti-proliferation activities”. Also, the “Annexin V+ population” value in the assay with T47D cells [5] (10 nM) was determined as 7.1%; in the assay with T47D cells [5] (200 nM) it was 28.6%.
With `CC(=O)N1CCc2c(c(N3CCCc4cc(-c5cnn(C)c5)c(C(F)F)cc43)nn2C2CCN(CC(=O)NCCCCNc3ccc(C(=O)Nc4ncc(C)s4)c(C)c3)CC2)C1` [CPD-191], the “P300 and CBP protein levels” value in the assay on P300 and CBP [6] is “reduced P300 and CBP protein levels in a concentration-dependent manner”. This compound showed a DC50 in the assay on P300 and CBP [7] of under 0.01 µM. Further, the “reduction of P300 and CBP protein levels” value with P300 and CBP [7] (dose range) is “significantly reduced”. Further, the “P300/CBP Degradation (100 nM)” value in the assay with P300/CBP is recorded as “A (degradation activity >= 80%)”.
For `CC(=O)c1c(C)c2cnc(Nc3ccc(N4CCN(CCOCCOCCOCCNC(=O)COc5cccc6c5C(=O)N(C5CCC(=O)NC5=O)C6=O)CC4)cn3)nc2n(C2CCCC2)c1=O` (centres unmarked) [BSJ-03-123, reference compound], the Calu-1 cell growth entry in the assay on Calu-1 cells was “did not affect cyclin D1 protein levels (FIG. 11A) or suppress Calu-1 cell growth”. The “cyclin D1 protein levels” value in [8] is given as “did not affect”. In the assay on Calu-1, the “cell viability (cellular anti-proliferation activity)” value is “didn't significantly suppress tumor cell viability”. In the assay with CDK4, CDK6, the “CDK4 and CDK6 protein levels” value is “significantly reduced”. Besides, in assay [9], the “CDK4 and CDK6 protein levels” value was “significantly reduced CDK4 and CDK6 protein levels”; the “cyclin DC protein levels” value is “didn't affect cyclin DC protein levels”.

The values are drawn from patent US20250235543A1, “MODIFIED PROTEINS AND PROTEIN DEGRADERS” (Cullgen (Shanghai), Inc., priority 2021, published 2025).
